According to ChEMBL document CHEMBL1138977, “Design and synthesis of novel 5,6-disubstituted uracil derivatives as potent inhibitors of thymidine phosphorylase” (Bioorg Med Chem Lett, 2006):

Target: Thymidine phosphorylase (Escherichia coli K-12, UniProt P07650)
Assay: Inhibition of Escherichia coli TP

Chain of Thymidine phosphorylase (P07650 whole entry): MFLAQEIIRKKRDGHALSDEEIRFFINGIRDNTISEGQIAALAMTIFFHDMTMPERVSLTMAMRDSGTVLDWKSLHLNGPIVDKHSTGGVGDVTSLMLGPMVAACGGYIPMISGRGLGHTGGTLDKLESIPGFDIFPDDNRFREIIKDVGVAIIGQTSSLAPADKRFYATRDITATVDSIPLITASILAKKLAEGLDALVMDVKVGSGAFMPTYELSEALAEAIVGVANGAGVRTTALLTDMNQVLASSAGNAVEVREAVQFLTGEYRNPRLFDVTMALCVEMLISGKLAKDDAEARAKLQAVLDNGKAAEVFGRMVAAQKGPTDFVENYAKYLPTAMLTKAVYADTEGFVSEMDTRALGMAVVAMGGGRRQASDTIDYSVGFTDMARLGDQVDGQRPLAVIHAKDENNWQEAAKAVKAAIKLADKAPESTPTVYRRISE

IC50 | SMILES
10.4 µM | Oc1nc(O)c(Cl)c(N2CCOCC2)n1
7.3 µM | Oc1nc(O)c(Cl)c(N2CCCCC2)n1
10.1 µM | Oc1nc(O)c(Cl)c(NC2CC2)n1
4.3 µM | OCC1CCCCN1c1nc(O)nc(O)c1Cl (stereo unspecified)
9.1 µM | NNc1nc(O)nc(O)c1Cl
4.4 µM | Oc1nc(O)c(Cl)c(N2CCCC2)n1
3.5 µM | Oc1nc(O)c(Br)c(NC2CC2)n1
14 µM | Oc1nc(O)c(Cl)c(N2CCC2)n1
5.4 µM | OCC1CCCN(c2nc(O)nc(O)c2Cl)C1 (stereo unspecified)

The next lines start with the compound.

SMILES | IC50
OCC1CCN(c2nc(O)nc(O)c2Br)CC1 | 5.5 µM
OCCC1CCN(c2nc(O)nc(O)c2Br)CC1 | 6.1 µM
Oc1nc(O)c(Br)c(N2CCC2)n1 | 2 µM
Oc1nc(O)c(Br)c(N2CCCCC2)n1 | 9.1 µM
OCCC1CCN(c2nc(O)nc(O)c2Cl)CC1 | 5.5 µM
OCC1CCCCN1c1nc(O)nc(O)c1Br (stereo unspecified) | 6.5 µM
Nc1[nH]c(=O)[nH]c(=O)c1Cl | 4 µM
Oc1nc(O)c(Br)c(N2CCN(c3nc(O)nc(O)c3Br)CC2)n1 | 2.3 µM
Oc1nc(O)c(Br)c(N2CCOCC2)n1 | 11.6 µM
Oc1nc(O)c(Br)c(NCCNc2nc(O)nc(O)c2Br)n1 | 2.5 µM
OCC1CCCN(c2nc(O)nc(O)c2Br)C1 (stereo unspecified) | 6.5 µM
Oc1nc(O)c(Cl)c(N2CCN(c3nc(O)nc(O)c3Cl)CC2)n1 | 8.7 µM
